Key:
[1] = test system: JAK1-dependent STAT6 phosphorylation downstream of IL-13 stimulation in BEAS-2B human bronchial epithelial cells; test: cells; conditions: read-out: IL13-pSTAT6 BEASB2B IC50
[2] = test system: JAK1-dependent STAT6 phosphorylation downstream of IL-13 stimulation in TF-1 human erythroleukemia cells; test: cells; conditions: TF-1, read-out: IL-13-pSTAT6 IC50

| SMILES | IC50 [2] [nM] | IC50 [1] [nM] |
| --- | --- | --- |
| CN1CCCC1CCNC(=O)c1ccc(Nc2nc3c(N4CCC(O)(c5ccc(Cl)cc5)CC4)cccn3n2)cc1 (stereo not shown) [Example 1-102, 4-[[8-[4-(4-chlorophenyl)-4-hydroxy-1-piperidyl]-[1,2,4]triazolo[1,5-a]pyridin-2-yl]amino]-N-[2-(1-methylpyrrolidin-2-yl)ethyl]benzamide] | 45 | 54.7 |
| CN(C)c1cc(CC2CCN(C(=O)c3ccc(Nc4nc5c(N6CCC(O)(c7ccc(Cl)cc7)CC6)cccn5n4)cc3)C2)ncn1 (stereo not shown) [Example 1-151, [4-[[8-[4-(4-chlorophenyl)-4-hydroxy-1-piperidyl]-[1,2,4]triazolo[1,5-a]pyridin-2-yl]amino]phenyl]-[3-[[6-(dimethylamino)pyrimidin-4-yl]methyl]pyrrolidin-1-yl]methanone] | 107 | 167 |
| CN1CCC2CN(C(=O)c3ccc(Nc4nc5c(N6CCC(CO)(c7ccc(Cl)cc7)CC6)cccn5n4)cc3)CC21 (stereo not shown) [Example 1-275, [4-[[8-[4-(4-chlorophenyl)-4-(hydroxymethyl)-1-piperidyl]-[1,2,4]triazolo[1,5-a]pyridin-2-yl]amino]phenyl]-(1-methyl-2,3,3a,4,6,6a-hexahydropyrrolo[2,3-c]pyrrol-5-yl)methanone] | 3 | 55.5 |
| O=C(NC1CCN(C2CCCC2)CC1)c1ccc(Nc2nc3c(N4CCC(CO)(c5ccc(Cl)cc5)CC4)cccn3n2)cc1 [Example 1-280, 4-[[8-[4-(4-chlorophenyl)-4-(hydroxymethyl)-1-piperidyl]-[1,2,4]triazolo[1,5-a]pyridin-2-yl]amino]-N-(1-cyclopentyl-4-piperidyl)benzamide] | 124 | 52.8 |
| C[C@H]1CN(C2CCN(C(=O)c3ccc(Nc4nc5c(N6CCC(CO)(c7ccc(Cl)cc7)CC6)cccn5n4)cc3)CC2)C[C@H](C)O1 [Example 1-281, [4-[[8-[4-(4-chlorophenyl)-4-(hydroxymethyl)-1-piperidyl]-[1,2,4]triazolo[1,5-a]pyridin-2-yl]amino]phenyl]-[4-[(2S,6S)-2,6-dimethylmorpholin-4-yl]-1-piperidyl]methanone] | 70.2 | 134 |
| C[C@@H]1CN(C2CCN(C(=O)c3ccc(Nc4nc5c(N6CCC(CO)(c7ccc(Cl)cc7)CC6)cccn5n4)cc3)CC2)C[C@H](C)O1 [Example 1-282, [4-[[8-[4-(4-chlorophenyl)-4-(hydroxymethyl)-1-piperidyl]-[1,2,4]triazolo[1,5-a]pyridin-2-yl]amino]phenyl]-[4-[(2R,6S)-2,6-dimethylmorpholin-4-yl]-1-piperidyl]methanone] | 42.6 | 55.6 |
| CCN(Cc1ccncc1)C(=O)c1ccc(Nc2nc3c(N4CCC(CO)(c5ccc(Cl)cc5)CC4)cccn3n2)cc1 [Example 1-287, 4-[[8-[4-(4-chlorophenyl)-4-(hydroxymethyl)-1-piperidyl]-[1,2,4]triazolo[1,5-a]pyridin-2-yl]amino]-N-ethyl-N-(4-pyridylmethyl)benzamide] | 22.5 | 36.4 |
| O=C(c1ccc(Nc2nc3c(N4CCC(CO)(c5ccc(Cl)cc5)CC4)cccn3n2)cc1)N1CCCC1c1ccncc1 (stereo not shown) [Example 1-288, [4-[[8-[4-(4-chlorophenyl)-4-(hydroxymethyl)-1-piperidyl]-[1,2,4]triazolo[1,5-a]pyridin-2-yl]amino]phenyl]-[2-(4-pyridyl)pyrrolidin-1-yl]methanone] | 28 | 67.7 |

Further lines, with some results ahead:

| IC50 [2] [nM] | SMILES | IC50 [1] [nM] |
| --- | --- | --- |
| 14.7 | O=C(c1ccc(Nc2nc3c(N4CCC(O)(c5ccc(Cl)cc5)CC4)cccn3n2)cc1)N1CCC(N2CCOCC2)C1 (stereo not shown) [Example 1-127, [4-[[8-[4-(4-chlorophenyl)-4-hydroxy-1-piperidyl]-[1,2,4]triazolo[1,5-a]pyridin-2-yl]amino]phenyl]-(3-morpholinopyrrolidin-1-yl)methanone] | 24.5 |
| 23.4 | O=C(NCCc1ccncc1)c1ccc(Nc2nc3c(N4CCC(O)(c5ccc(Cl)cc5)CC4)cccn3n2)cc1 [Example 1-161, 4-[[8-[4-(4-chlorophenyl)-4-hydroxy-1-piperidyl]-[1,2,4]triazolo[1,5-a]pyridin-2-yl]amino]-N-[2-(4-pyridyl)ethyl]benzamide] | 48.5 |
| 27.1 | CN1CCC(N(C)C(=O)c2ccc(Nc3nc4c(N5CCC(CCO)(c6ccc(Cl)cc6)CC5)cccn4n3)cc2)CC1 [Example 1-255, 4-[[8-[4-(4-chlorophenyl)-4-(2-hydroxyethyl)-1-piperidyl]-[1,2,4]triazolo[1,5-a]pyridin-2-yl]amino]-N-methyl-N-(1-methyl-4-piperidyl)benzamide; formic acid] | 159 |
| 93.4 | COCC1(c2ccc(Cl)cc2)CCN(c2cccn3nc(Nc4ccc(C(=O)N(C)C5CCN(C)CC5)cc4)nc23)CC1 [Example 1-258, 4-[[8-[4-(4-chlorophenyl)-4-(methoxymethyl)-1-piperidyl]-[1,2,4]triazolo[1,5-a]pyridin-2-yl]amino]-N-methyl-N-(1-methyl-4-piperidyl)benzamide; formic acid] | 1440 |
| 95.7 | O=C(c1ccc(Nc2nc3c(N4CCC(CO)(c5ccc(Cl)cc5)CC4)cccn3n2)cc1)N1CCC(c2ccccn2)CC1 [Example 1-276, [4-[[8-[4-(4-chlorophenyl)-4-(hydroxymethyl)-1-piperidyl]-[1,2,4]triazolo[1,5-a]pyridin-2-yl]amino]phenyl]-[4-(2-pyridyl)-1-piperidyl]methanone] | 82 |
| 23.1 | C[C@H]1CN(CCNC(=O)c2ccc(Nc3nc4c(N5CCC(CO)(c6ccc(Cl)cc6)CC5)cccn4n3)cc2)C[C@H](C)O1 [Example 1-277, 4-[[8-[4-(4-chlorophenyl)-4-(hydroxymethyl)-1-piperidyl]-[1,2,4]triazolo[1,5-a]pyridin-2-yl]amino]-N-[2-[(2S,6S)-2,6-dimethylmorpholin-4-yl]ethyl]benzamide] | 73.3 |
| 16.3 | C[C@@H]1CN(CCNC(=O)c2ccc(Nc3nc4c(N5CCC(CO)(c6ccc(Cl)cc6)CC5)cccn4n3)cc2)C[C@H](C)O1 [Example 1-278, 4-[[8-[4-(4-chlorophenyl)-4-(hydroxymethyl)-1-piperidyl]-[1,2,4]triazolo[1,5-a]pyridin-2-yl]amino]-N-[2-[(2R,6S)-2,6-dimethylmorpholin-4-yl]ethyl]benzamide] | 37.6 |
| 28.1 | O=C(c1ccc(Nc2nc3c(N4CCC(CO)(c5ccc(Cl)cc5)CC4)cccn3n2)cc1)N1CCC(c2ccncc2)C1 (stereo not shown) [Example 1-279, [4-[[8-[4-(4-chlorophenyl)-4-(hydroxymethyl)-1-piperidyl]-[1,2,4]triazolo[1,5-a]pyridin-2-yl]amino]phenyl]-[3-(4-pyridyl)pyrrolidin-1-yl]methanone] | 34.6 |
| 22.1 | CC(C)(CNC(=O)c1ccc(Nc2nc3c(N4CCC(CO)(c5ccc(Cl)cc5)CC4)cccn3n2)cc1)N1CCOCC1 [Example 1-285, 4-[[8-[4-(4-chlorophenyl)-4-(hydroxymethyl)-1-piperidyl]-[1,2,4]triazolo[1,5-a]pyridin-2-yl]amino]-N-(2-methyl-2-morpholino-propyl)benzamide] | 57.6 |

Reference: US9873709B2 (priority 2013, dated 2018)
